Laboratory results: patent EP4570805A1, “TRICYCLIC COMPOUNDS AND MEDICAL USE THEREOF” (Chia Tai Tianqing Pharmaceutical Group Co., Ltd., priority 2022, dated 2024)

System: Capan-1 cells
Assay: Inhibitory activity for Capan-1 cell proliferation (CCK-8)
Type: cell-based
Settings: 5 days incubation
Procedure: Capan-1 cells in a well-growing state were collected into a centrifuge tube, adjusted to a cell density of 1.5 × 10^4 cells/mL, and inoculated onto a 96-well plate (100 µL/well). […] Meanwhile, a control was set. After 5 days of incubation in the cell incubator, the assay reagent CCK-8 (manufacturer: Dojindo Laboratories, Beijing; 10 µL/well) was added. After 4 h of incubation in the cell incubator, the absorbance was measured at 450 nm on a PerkinElmer Envision microplate reader. A four-parameter analysis was performed, a dose-response curve was fitted, and IC50 was calculated.

SMILES	IC50 (Homo sapiens, CAPAN-1, 120 h) [nM]	IC50 [nM]
CC(c1cccnc1N)N1c2nc(OC[C@@]34CCCN3C[C@H](F)C4)nc3c(F)c(-c4ccc(F)c5sc(N)c(C#N)c45)nc(c23)OC[C@@H]1C (stereo partly shown) [Example 81]	< 100	
CC(c1cccnc1N)N1c2nc(OC[C@@]34CCCN3C[C@H](F)C4)nc3c(F)c(-c4cccc5ccc(F)c(F)c45)nc(c23)OC[C@@H]1C (single isomer, unassigned) [Example 120]	< 100	
C#Cc1c(F)ccc2cc(O)cc(-c3nc4c5c(nc(OCC6(N)CC6)nc5c3F)N(C(C)c3cccnc3N)[C@@H](C)CO4)c12 (single isomer, unassigned) [Example 99]	< 100	
C#Cc1c(F)ccc2cc(O)cc(-c3nc4c5c(nc(OC[C@@H](C)N6CCC6)nc5c3F)N(C(C)c3cccnc3N)[C@@H](C)CO4)c12 (single isomer, unassigned) [Example 174]	< 100	
C#Cc1c(F)ccc2cc(O)cc(-c3nc4c5c(nc(OCCCN6CCCC6)nc5c3F)N(C(C)c3cccnc3N)[C@@H](C)CO4)c12 (single isomer, unassigned) [Example 132]	< 100	
C#Cc1c(F)ccc2cc(O)cc(-c3nc4c5c(nc(OCC(C)(C)OC)nc5c3F)N(C(C)c3cccnc3N)[C@@H](C)CO4)c12 (single isomer, unassigned) [Example 77]	< 100	
C#Cc1c(F)ccc2cc(O)cc(-c3nc4c5c(nc(OC[C@H](C)OC)nc5c3F)N(C(C)c3cccnc3N)[C@@H](C)CO4)c12 (single isomer, unassigned) [Example 73]	< 100	
C#Cc1c(F)ccc2cc(O)cc(-c3nc4c5c(nc(OCCCN6CCOCC6)nc5c3F)N(C(C)c3cccnc3N)[C@@H](C)CO4)c12 (single isomer, unassigned) [Example 154]	< 100	
C#Cc1c(F)ccc2cc(O)cc(-c3nc4c5c(nc(OCCN6CCOCC6)nc5c3F)N(C(C)c3cccnc3N)[C@@H](C)CO4)c12 (single isomer, unassigned) [Example 136]	< 100	
C#Cc1c(F)ccc2cc(O)cc(-c3nc4c5c(nc(OCCN6CCN(C)CC6)nc5c3F)N(C(C)c3cccnc3N)[C@@H](C)CO4)c12 (single isomer, unassigned) [Example 168]	< 100	
C#Cc1c(F)ccc2cc(O)cc(-c3nc4c5c(nc(OCC6(CN7CCOCC7)CC6)nc5c3F)N(C(C)c3cccnc3N)[C@@H](C)CO4)c12 (single isomer, unassigned) [Example 70]		< 100
Cc1cccc(-c2nc3c4c(nc(OC[C@@]56CCCN5C[C@H](F)C6)nc4c2F)N(C(C)c2cccnc2N)[C@@H](C)CO3)c1N(C)C (single isomer, unassigned) [Example 128]	< 100	
CC(c1cccnc1N)N1c2nc(OC[C@@]34CCCN3C[C@H](F)C4)nc3c(F)c(-c4ccc(F)c5sc(N)nc45)nc(c23)OC[C@@H]1C (single isomer, unassigned) [Example 116]	< 100	
Cc1cccc(-c2nc3c4c(nc(OC[C@@H]5CCCN5C)nc4c2F)N(C(C)c2cccnc2N)[C@@H](C)CO3)c1C(F)(F)F (single isomer, unassigned) [Example 160]	< 100	
CC(c1cccnc1N)N1c2nc(OC[C@@H]3CCCN3C)nc3c(F)c(-c4ccc(F)c5sc(N)c(C#N)c45)nc(c23)OC[C@@H]1C (single isomer, unassigned) [Example 158]	< 100	
C#Cc1c(F)ccc2cc(O)cc(-c3nc4c5c(nc(OCCN6CCCCC6)nc5c3F)N(C(C)c3cccnc3N)[C@@H](C)CO4)c12 (single isomer, unassigned) [Example 166]	< 100	
C#Cc1c(F)ccc2cc(O)cc(-c3nc4c5c(nc(OC[C@@H]6COCCN6C)nc5c3F)N(C(C)c3cccnc3N)[C@@H](C)CO4)c12 (single isomer, unassigned) [Example 91]	< 100	
C#Cc1c(F)ccc2cc(O)cc(-c3nc4c5c(nc(OC[C@@H]6CN(C)CCN6C)nc5c3F)N(C(C)c3cccnc3N)[C@@H](C)CO4)c12 (single isomer, unassigned) [Example 109]	< 100	
C#Cc1c(F)ccc2cc(O)cc(-c3nc4c5c(ncnc5c3F)N(C(C)c3cccnc3N)[C@@H](C)CO4)c12 (single isomer, unassigned) [Example 89]	< 100	
C#Cc1c(F)ccc2cc(O)cc(-c3nc4c5c(nc(OCCCN6CCN(C)CC6)nc5c3F)N(C(C)c3cccnc3N)[C@@H](C)CO4)c12 (single isomer, unassigned) [Example 170]	< 100	
C#Cc1c(F)ccc2cc(O)cc(-c3nc4c5c(nc(OC[C@@]67CCCN6C[C@H](F)C7)nc5c3F)N(CC(F)F)C(C)CO4)c12 (stereo partly shown) [Example 50]	< 100	
C#Cc1c(F)ccc2cc(O)cc(-c3nc4c5c(nc(OCC67CCCN6CC(F)C7)nc5c3F)N(C3CC3)C(C)CO4)c12 (single isomer, unassigned) [Example 45]	< 100	

SMILES	IC50 (Homo sapiens, CAPAN-1, 120 h) [nM]	IC50 [nM]
CC(c1cccnc1N)N1c2nc(OC[C@@]34CCCN3C[C@H](F)C4)nc3c(F)c(-c4ccc(F)c5sc(N)c(C#N)c45)nc(c23)OC[C@@H]1C (single isomer, unassigned) [Example 82]	< 100	
C#Cc1c(F)ccc2cccc(-c3nc4c5c(nc(OCC67CCCN6CC(F)C7)nc5c3F)N(C(C)c3cccnc3N)C(C)CO4)c12 (single isomer, unassigned) [Example 48]		< 100
CC(c1cccnc1N)N1c2nc(OC[C@@]34CCCN3C[C@H](F)C4)nc3c(F)c(-c4ccccc4N(C)C)nc(c23)OC[C@@H]1C (single isomer, unassigned) [Example 57]	< 100	
C#Cc1c(F)ccc2cc(O)cc(-c3nc4c5c(nc(OCCCN6CCCCC6)nc5c3F)N(C(C)c3cccnc3N)[C@@H](C)CO4)c12 (single isomer, unassigned) [Example 142]	< 100	
CC(c1cccnc1N)N1c2nc(OC[C@@]34CCCN3C[C@H](F)C4)nc3c(F)c(-c4ccccc4C(F)(F)F)nc(c23)OC[C@@H]1C (single isomer, unassigned) [Example 61]	< 100	
CC(c1cccnc1N)N1c2nc(OC[C@@]34CCCN3C[C@H](F)C4)nc3c(F)c(-c4cc(N)cc(Cl)c4C(F)(F)F)nc(c23)OC[C@@H]1C (single isomer, unassigned) [Example 64]		< 100
C#Cc1c(F)ccc2cc(O)cc(-c3nc4c5c(nc(OC)nc5c3F)N(C(C)c3cccnc3N)[C@@H](C)CO4)c12 (single isomer, unassigned) [Example 65]	< 100	
C#Cc1c(F)ccc2cccc(-c3nc4c5c(nc(OC[C@@H]6CCCN6C)nc5c3F)N(C(C)c3cccnc3N)[C@@H](C)CO4)c12 (single isomer, unassigned) [Example 88]		< 100
Cc1cccc(-c2nc3c4c(nc(OCC56CCCN5CC(F)C6)nc4c2F)N(C(C)c2cccnc2N)C(C)CO3)c1C(F)(F)F (single isomer, unassigned) [Example 55]	< 100	
C#Cc1c(F)ccc2cc(O)cc(-c3nc4c5c(nc(OCC(C)CN(C)C)nc5c3F)N(C(C)c3cccnc3N)[C@@H](C)CO4)c12 (single isomer, unassigned) [Example 144]	< 100	
CC(c1cccnc1N)N1c2nc(OC[C@@]34CCCN3C[C@H](F)C4)nc3c(F)c(-c4cccc5ccccc45)nc(c23)OC[C@@H]1C (single isomer, unassigned) [Example 59]	< 100	
C#Cc1c(F)ccc2cc(O)cc(-c3nc4c5c(nc(OCc6nccn6C)nc5c3F)N(C(C)c3cccnc3N)[C@@H](C)CO4)c12 (single isomer, unassigned) [Example 93]	< 100	
C#Cc1c(F)ccc2cc(O)cc(-c3nc4c5c(nc(OC[C@@H]6C[C@@H](F)CN6C)nc5c3F)N(C(C)c3cccnc3N)[C@@H](C)CO4)c12 (single isomer, unassigned) [Example 147]		< 100
C#Cc1c(F)ccc2cc(O)cc(-c3nc4c5c(nc(OC[C@@]67CCCN6C[C@H](F)C7)nc5c3F)N(C(C)c3cccnc3N)[C@H](C)CO4)c12 (stereo partly shown) [Example 41]	< 100	
C#Cc1c(F)ccc2cc(O)cc(-c3nc4c5c(nc(OC[C@@H](C)OC)nc5c3F)N(C(C)c3cccnc3N)[C@@H](C)CO4)c12 (single isomer, unassigned) [Example 75]	< 100	
C#Cc1cccc2cccc(-c3nc4c5c(nc(OC[C@@]67CCCN6C[C@H](F)C7)nc5c3F)N(C(C)c3cccnc3N)[C@@H](C)CO4)c12 (single isomer, unassigned) [Example 131]		< 100
[2H]C([2H])(Oc1nc2c3c(nc(-c4cc(O)cc5ccc(F)c(C#C)c45)c(F)c3n1)OC[C@H](C)N2C(C)c1cccnc1N)[C@@]12CCCN1C[C@H](F)C2 (single isomer, unassigned) [Example 72]		< 100
CC(c1cccnc1N)N1c2nc(OC[C@@]34CCCN3C[C@H](F)C4)nc3c(F)c(-c4cc(N)cc(Cl)c4C(F)(F)F)nc(c23)OC[C@@H]1C (single isomer, unassigned) [Example 63]	< 100	
C#Cc1c(F)ccc2cc(O)cc(-c3nc4c5c(nc(OC[C@@H]6COCCN6C)nc5c3F)N(C(C)c3cccnc3N)[C@@H](C)CO4)c12 (single isomer, unassigned) [Example 92]		< 100
CC(c1cccnc1N)N1c2nc(OC[C@@]34CCCN3C[C@H](F)C4)nc3c(F)c(-c4cccc(F)c4N(C)C)nc(c23)OC[C@@H]1C (single isomer, unassigned) [Example 126]	< 100	
C#Cc1c(F)ccc2cc(O)cc(-c3nc4c5c(nc(OC[C@@H](C)N(C)C)nc5c3F)N(C(C)c3cccnc3N)[C@@H](C)CO4)c12 (single isomer, unassigned) [Example 152]	< 100	
